System: NCI-H196 SCLC complex tumor spheroid viability
Assay: Anticancer human tumor NCI-H196 cell line growth inhibition;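 also: spheroids exposed to compounds for 7 days before readout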;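 as to viability, T/C: 100% = DMSO vehicle control wells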
Conditions: for IC50: curve of first compound; for viability, T/C: stronger effect = lower value
Procedure, shortened: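 Single agents and combinations were tested on spheroids built from tumor cells plus HUVEC and hMSC, at half-log dilutions starting at or near clinical Cmax, else 10 microM; final DMSO 0.25% (v/v).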

[1] = second compound 30 pM, first compound 0.0316 µM
[2] = second compound 30 pM, first compound 0.1 µM
[3] = second compound 30 pM, first compound 0.316 µM
[4] = second compound 30 pM, first compound 1 µM
[5] = second compound 30 pM, first compound 3.16 µM
[6] = second compound 30 pM, first compound 10 µM
[7] = second compound 94.9 pM, first compound 0.0316 µM
[8] = second compound 94.9 pM, first compound 0.1 µM
[9] = second compound 94.9 pM, first compound 0.316 µM
[10] = second compound 94.9 pM, first compound 1 µM
[11] = second compound 94.9 pM, first compound 3.16 µM
[12] = second compound 94.9 pM, first compound 10 µM
[13] = second compound 0.0003 µM, first compound 0.0316 µM
[14] = second compound 0.0003 µM, first compound 0.1 µM
[15] = second compound 0.0003 µM, first compound 0.316 µM
[16] = second compound 0.0003 µM, first compound 1 µM
[17] = second compound 0.0003 µM, first compound 3.16 µM
[18] = second compound 0.0003 µM, first compound 10 µM
[19] = second compound 0.000949 µM, first compound 0.0316 µM
[20] = second compound 0.000949 µM, first compound 0.1 µM
[21] = second compound 0.000949 µM, first compound 0.316 µM
[22] = second compound 0.000949 µM, first compound 1 µM
[23] = second compound 0.000949 µM, first compound 3.16 µM
[24] = second compound 0.000949 µM, first compound 10 µM
[25] = second compound 0.003 µM, first compound 0.0316 µM
[26] = second compound 0.003 µM, first compound 0.1 µM
[27] = second compound 0.003 µM, first compound 0.316 µM
[28] = second compound 0.003 µM, first compound 1 µM
[29] = second compound 0.003 µM, first compound 3.16 µM
[30] = second compound 0.003 µM, first compound 10 µM

Row | SMILES | IC50 (second compound 30 pM) | IC50 (second compound 94.9 pM) | IC50 (second compound 0.0003 µM) | IC50 (second compound 0.000949 µM) | IC50 (second compound 0.003 µM) | viability, T/C [1] | viability, T/C [2] | viability, T/C [3] | viability, T/C [4] | viability, T/C [5] | viability, T/C [6] | viability, T/C [7] | viability, T/C [8] | viability, T/C [9] | viability, T/C [10] | viability, T/C [11] | viability, T/C [12] | viability, T/C [13] | viability, T/C [14] | viability, T/C [15] | other results
1 | CC1COCCN1c1cc(-c2ccnn2C)c2ccnc(-c3ccn[nH]3)c2n1 (stereo not given) + COc1cc2c(cc1O)CCNC21CSC2c3c(OC(C)=O)c(C)c4c(c3C(COC1=O)N1C(O)C3Cc5cc(C)c(OC)c(O)c5C(C21)N3C)OCO4 | 4.19 µM | 3.43 µM | 2.5 µM | 0.711 µM | < 0.0316 µM | 90.5% | 74.5% | 67.2% | 56.7% | 51.8% | 46.3% | 89.1% | 73.8% | 67% | 58% | 50.8% | 44.5% | 81.8% | 67.1% | 64% | viability, T/C [16]: 59.2%; viability, T/C [17]: 45.9%; viability, T/C [18]: 42.5%; viability, T/C [19]: 72.2%; viability, T/C [20]: 64%; viability, T/C [21]: 56.3%; viability, T/C [22]: 51.7%; viability, T/C [23]: 31.9%; viability, T/C [24]: 32.6%; viability, T/C [25]: 9.26%; viability, T/C [26]: 6.28%; viability, T/C [27]: 10.1%; viability, T/C [28]: 3.62%; viability, T/C [29]: 0.78%; viability, T/C [30]: 0.39%
2 | COc1cc(C)[nH]c(=O)c1CN1CCc2c(Cl)cc(C(OC)C3COC3)c(Cl)c2C1=O (stereo not given) + COc1cc2c(cc1O)CCNC21CSC2c3c(OC(C)=O)c(C)c4c(c3C(COC1=O)N1C(O)C3Cc5cc(C)c(OC)c(O)c5C(C21)N3C)OCO4 | > 10 µM | > 10 µM | > 10 µM | > 10 µM | < 0.0316 µM | 104% | 101% | 95.8% | 101% | 97.8% | 98.4% | 107% | 96.5% | 103% | 95.4% | 99.1% | 104% | 100% | 105% | 98.8% | viability, T/C [16]: 97.1%; viability, T/C [17]: 94.6%; viability, T/C [18]: 97.8%; viability, T/C [19]: 83.7%; viability, T/C [20]: 80.3%; viability, T/C [21]: 83%; viability, T/C [22]: 80.9%; viability, T/C [23]: 87%; viability, T/C [24]: 77.9%; viability, T/C [25]: 18.9%; viability, T/C [26]: 5.38%; viability, T/C [27]: 7.56%; viability, T/C [28]: 12.5%; viability, T/C [29]: 5.22%; viability, T/C [30]: 2.69%
3 | Cc1cc(C)c(CNC(=O)c2cc(-c3ccc(CN4CCOCC4)cc3)cc3c2cnn3C2CCCC2)c(=O)[nH]1 + COc1cc2c(cc1O)CCNC21CSC2c3c(OC(C)=O)c(C)c4c(c3C(COC1=O)N1C(O)C3Cc5cc(C)c(OC)c(O)c5C(C21)N3C)OCO4 | > 10 µM | > 10 µM | > 10 µM | > 10 µM | < 0.0316 µM | 106% | 104% | 105% | 103% | 97.2% | 105% | 109% | 101% | 99.5% | 104% | 107% | 106% | 103% | 105% | 105% | viability, T/C [16]: 105%; viability, T/C [17]: 102%; viability, T/C [18]: 104%; viability, T/C [19]: 87.8%; viability, T/C [20]: 94.6%; viability, T/C [21]: 91.8%; viability, T/C [22]: 83.9%; viability, T/C [23]: 85%; viability, T/C [24]: 85%; viability, T/C [25]: 6.27%; viability, T/C [26]: 7.07%; viability, T/C [27]: 9.74%; viability, T/C [28]: 5.44%; viability, T/C [29]: 5.81%; viability, T/C [30]: 3.71%
4 | [2H]c1nc(C)nc([2H])c1-c1cc(NC[C@@H](C)c2cccc3c(C(=O)NC)ccnc23)ncn1 + COc1cc2c(cc1O)CCNC21CSC2c3c(OC(C)=O)c(C)c4c(c3C(COC1=O)N1C(O)C3Cc5cc(C)c(OC)c(O)c5C(C21)N3C)OCO4 | > 10 µM | > 10 µM | > 10 µM | > 10 µM | < 0.0316 µM | 102% | 102% | 101% | 104% | 99.4% | 97.6% | 105% | 108% | 101% | 106% | 97.8% | 104% | 102% | 106% | 106% | viability, T/C [16]: 105%; viability, T/C [17]: 104%; viability, T/C [18]: 105%; viability, T/C [19]: 92.5%; viability, T/C [20]: 86%; viability, T/C [21]: 88.2%; viability, T/C [22]: 83.5%; viability, T/C [23]: 83.4%; viability, T/C [24]: 93.7%; viability, T/C [25]: 5.55%; viability, T/C [26]: 6.42%; viability, T/C [27]: 3.96%; viability, T/C [28]: 6.02%; viability, T/C [29]: 4.53%; viability, T/C [30]: 2.75%
